“Also recorded” adds a separate entry of the source.
Key:
[1] = test system: wild-type and CAR knockout mice; test: APAP toxicity after pretreatment with inducers (serum ALT, histology); type: in vivo, mouse; details: mouse, in vivo
Protocol: (§1) CAR (+/+) or CAR (−/−) animals pretreated with phenobarbital (PB), TCPOBOP (TC), or vehicle alone were administered a 250 mg/kg dose of APAP by intraperitoneal injection (n=5–7 per treatment group) (FIG. 11A). Serum was collected and alanine aminotransferase (ALT) levels were measured after 24 hours. Liver sections from different treatments were examined by histological staining (FIG. 11B). Liver samples from all treated animals were analyzed but only representative histology is presented. […] CAR (+/+) or CAR (−/−) animals were pretreated with PB, TCPOBOP (TC), or vehicle alone for three days (FIG. 11C). […] Liver samples treated as indicated were collected two hours after APAP and GSH levels were measured (n=5–7) (FIG. 11D).
The effect of PB and the potent CAR agonist TCPOBOP on APAP toxicity was examined in wild-type and CAR knockout mice. Both strains of mice were treated with inducers or the vehicle control, followed by 250 mg/kg APAP. For these studies, mice were kept in a pathogen-free animal facility under standard 12 hour light/12 hour dark cycle and fed standard rodent chow and water ad libitum. At least five mice between 8 and 10 weeks old were used in each treatment group. For 3-day PB (100 mg/kg) treatment, mice were injected intraperitoneally three times, one injection per day. TCPOBOP (3 mg/kg) and/or APAP were injected intraperitoneally. Phenobarbital and TCPOBOP were suspended or dissolved in corn oil, and APAP was dissolved in basic PBS (pH=11). PB and APAP were purchased from Sigma (St Louis, Mo.); TCPOBOP was a gift from Dr. Stephen Safe.
For histologic examination of the treated mice, the left lobe of the livers was removed and immediately fixed in 4% formaldehyde-PBS solution, embedded in paraffin, sectioned at 5 μm, and stained with hematoxylin and eosin. Samples were examined under a light microscope. For RNA studies, total RNA was extracted using TRIzol Reagent (Invitrogen Life Technologies, Carlsbad, Calif.) according to the manufacture's instruction. Equivalent amount of RNA from 3–5 mice were pooled and 10 μg of each sample was subjected to northern blot analysis. […] Preparation of probes for CYP2B10 and CYP3A11 were described as previously (Wei et al., Nature 407:920–923, 2000 and Zelko et al., Mol Cell Biol 21:2838–2846, 2001). PCR primers used were: CYP1A2: 5′-[…]-3′ (SEQ ID NO: 19) and 5′-[…]-3′ (SEQ ID NO: 20), CYP2E1: 5′-[…]-3′ (SEQ ID NO: 21) and 5′-[…]-3′ (SEQ ID NO: 22), GSTPi: 5′-[…]-3′ (SEQ ID NO: 23) and 5′-[…]-3′ (SEQ ID NO: 24). Hepatic non-protein thiol was measured as an indication of hepatic GSH content. Mice were sacrificed two hours after intraperitoneal injection with APAP. Livers were removed and immediately homogenized in four volumes of 5% trichloroacetic acid and then centrifuged at 1,600×g for 15 minutes. Supernatant (0.5 ml) was mixed with 1.5 ml 0.1 mM Ellman's reagent [5,5′-dithio-bis(2-nitrobenzoic acid)] (Sigma, St Louis, Mo.) and allowed to stand at room temperature for 15 minutes. Absorbance was read at 412 nm using GSH solutions as quantitative standards.

PXR = molecular target: T1, PXR (Mus musculus, UniProt O54915); details: cited from earlier work
T1 sequence (O54915 1-431): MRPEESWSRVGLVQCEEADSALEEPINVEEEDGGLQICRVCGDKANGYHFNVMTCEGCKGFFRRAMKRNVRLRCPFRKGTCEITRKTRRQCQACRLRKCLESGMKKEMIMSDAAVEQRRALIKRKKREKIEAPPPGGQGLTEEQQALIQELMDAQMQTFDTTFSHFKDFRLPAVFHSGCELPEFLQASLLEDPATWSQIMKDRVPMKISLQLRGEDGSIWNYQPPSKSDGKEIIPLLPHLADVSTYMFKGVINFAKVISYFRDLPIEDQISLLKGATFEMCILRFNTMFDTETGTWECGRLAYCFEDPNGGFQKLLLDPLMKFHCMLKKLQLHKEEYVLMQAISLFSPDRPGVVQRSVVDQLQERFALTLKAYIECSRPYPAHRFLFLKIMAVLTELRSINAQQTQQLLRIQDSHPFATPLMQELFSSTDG

[2] = test system: CYP2E1, CYP1A2, CYP3A11, GSTPi; test: Northern blot of APAP metabolizing genes in liver of wild-type and CAR null mice; details: mouse, in vivo, 500 mg/kg, 2 h
Protocol: as §1, with “Serum was collected and alanine aminotransferase (ALT) levels were measured after 24 hours.” left out
CAR (+/+) and CAR (−/−) animals were given 250 mg/kg, 500 mg/kg, or 800 mg/kg doses of APAP, respectively (FIG. 12A). […] Total liver RNA was prepared from 500 mg/kg APAP treated CAR (+/+) and CAR (−/−) livers at 0 and 2 hours as indicated. […] The same blot was stripped and re-probed with β-actin as loading control.
For histologic examination of the treated mice, the left lobe of the livers was removed and immediately fixed in 4% formaldehyde-PBS solution, embedded in paraffin, sectioned at 5 μm, and stained with hematoxylin and eosin. Samples were examined under a light microscope. For RNA studies, total RNA was extracted using TRIzol Reagent (Invitrogen Life Technologies, Carlsbad, Calif.) according to the manufacture's instruction. Equivalent amount of RNA from 3–5 mice were pooled and 10 μg of each sample was subjected to northern blot analysis. […] Hepatic non-protein thiol was measured as an indication of hepatic GSH content. Mice were sacrificed two hours after intraperitoneal injection with APAP. […] Supernatant (0.5 ml) was mixed with 1.5 ml 0.1 mM Ellman's reagent [5,5′-dithio-bis(2-nitrobenzoic acid)] […] Absorbance was read at 412 nm using GSH solutions as quantitative standards.

murine CAR receptor [3] = molecular target: T2, murine CAR receptor (Mus musculus, UniProt O35627); test: Ligand activity on murine CAR receptor
T2 sequence (O35627 1-358 M138L): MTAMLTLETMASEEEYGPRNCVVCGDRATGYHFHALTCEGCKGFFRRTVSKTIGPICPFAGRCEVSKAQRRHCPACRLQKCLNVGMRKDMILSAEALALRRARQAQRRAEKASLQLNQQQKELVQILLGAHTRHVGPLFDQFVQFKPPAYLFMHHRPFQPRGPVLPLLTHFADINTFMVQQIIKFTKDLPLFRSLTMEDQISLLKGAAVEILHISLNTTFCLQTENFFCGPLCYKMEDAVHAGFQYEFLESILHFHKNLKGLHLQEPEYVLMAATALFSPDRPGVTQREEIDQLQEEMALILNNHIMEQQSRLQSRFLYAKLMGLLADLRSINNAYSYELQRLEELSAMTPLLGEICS

human CAR [4] = molecular target: T3, human CAR (Homo sapiens, UniProt Q14994); test: Northern blot of gene induction in CAR humanized mice; details: 500 mg/kg
T3 sequence (Q14994 1-348 isoform Q14994-2): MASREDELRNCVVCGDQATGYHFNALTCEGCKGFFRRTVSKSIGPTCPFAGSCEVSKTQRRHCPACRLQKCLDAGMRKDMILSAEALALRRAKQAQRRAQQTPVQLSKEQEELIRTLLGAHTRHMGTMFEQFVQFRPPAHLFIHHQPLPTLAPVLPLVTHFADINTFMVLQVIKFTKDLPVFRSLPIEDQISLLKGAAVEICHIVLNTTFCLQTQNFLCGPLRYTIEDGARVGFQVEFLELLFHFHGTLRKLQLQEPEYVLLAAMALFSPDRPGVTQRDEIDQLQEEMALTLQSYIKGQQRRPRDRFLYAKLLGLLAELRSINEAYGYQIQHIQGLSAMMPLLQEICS
Protocol: CAR humanized mice (n=3) were treated with 500 mg/kg APAP or vehicle. After two hours, total liver RNA was prepared and subjected to Northern blot analysis with indicated probes.

CAR [5] = molecular target: T4, CAR (Mus musculus, UniProt O35627); test: Hepatoprotection after APAP (serum ALT, histology)
T4 sequence (O35627 1-358 M138L): T2 sequence (O35627 1-358 M138L)
Protocol: (§2) Wild-type mice (n=3 per group) were administered a 500 mg/kg dose of APAP by intraperitoneal injection.
(§3) For comparison, N-acetylcysteine (1 g/kg, purchased from Sigma and dissolved in PBS) was administered intraperitoneally to other mice.

CAR [6] = molecular target: T5, CAR (Mus musculus, UniProt O35627, M138L); test: Hepatoprotection after APAP (serum ALT, histology); details: for protective effect, androstanol compared with N-acetylcysteine: wild-type mice, one and three hours after APAP 500 mg/kg, androstanol 100 mg/kg, N-acetylcysteine 1 g/kg
T5 sequence (O35627 1-358 M138L): T2 sequence (O35627 1-358 M138L)
Protocol: as §2, §3

CAR [7] = test: Hepatoprotection after APAP (serum ALT, histology)
Protocol: as §2, §3

human CAR [8] = molecular target: T3, human CAR; details: cited from earlier work
murine CAR receptor [9] = molecular target: T6, murine CAR receptor (Mus musculus, UniProt O35627, M138L); details: cited from earlier work
T6 sequence (O35627 1-358 M138L): T2 sequence (O35627 1-358 M138L)

[10] = test system: wild-type and CAR null mice; details: mouse, in vivo
Text: To rule out the possibility that the CAR knockout animals are somehow resistant to NAPQI, the metabolite was directly injected into the livers of both wild-type and CAR null mice, and serum ALT levels were increased 5 to 10 fold in both. Thus, that both increased NAPQI production and GSH depletion may contribute to xenobiotic induced APAP toxicity.

[11] = CAR humanized mice, two hours, densitometry

## CC(=O)[C@H]1[C@H](C#N)C[C@H]2[C@@H]3CC=C4C[C@@H](O)CC[C@]4(C)[C@H]3CC[C@@]21C [PCN, 5-pregnen-3b-ol-20-one-16a-carbonitrile]
[1]
  sensitivity to APAP: increase in sensitivity to APAP comparable to that observed with TCPOBOP pretreatment
PXR
  PXR agonism: strong PXR agonist

## CC(=O)Nc1ccc(O)cc1 [APAP, N-acetyl-p-aminophenol]
[2]
  induction of CYP1A2 mRNA: approximately 2.8 fold
  induction of CYP3A11 mRNA: ~4.4 fold
  induction of GSTPi mRNA: ~3.9 fold
Murine CAR receptor [3]
  CAR agonist function: neither APAP nor NAPQI functions as a CAR agonist
Human CAR [4]; CAR humanized mice
  activation of human CAR: human CAR is activated by APAP
Human CAR [4]; [11]
  induction of CYP1A2 mRNA: 1.8 fold
  induction of CYP3A11 mRNA: 2.4 fold
  induction of GSTPi mRNA: 1.8 fold
Human CAR [4]; humanized mice
  expression of CYP1A2, CYP3A11 and GSTPi: increased expression

## C[C@@]12CCC[C@H]1[C@@H]1CC[C@H]3C[C@H](O)CC[C@]3(C)[C@H]1CC2 [androstanol, 5α-androstan-3α-ol]
CAR [5]; wild-type mice
  APAP toxicity after pretreatment: decreases APAP toxicity
CAR [5]; wild-type mice relative to untreated wild-type
  serum ALT, treatment three hours after APAP: somewhat lower serum ALT levels
CAR [5]; wild-type mice, APAP 500 mg/kg, androstanol 100 mg/kg i.p.
  hepatotoxicity, treatment one hour after APAP: blocked hepatotoxicity; also recorded: nearly complete absence of hepatotoxicity
CAR [6]; relative to wild-type control
  protective effect, treatment five hours after APAP: no protective effect
CAR [6]
  protective effect, androstanol compared with N-acetylcysteine: very similar
CAR [7]; CAR knockout animals, APAP 500 mg/kg, androstanol 100 mg/kg i.p.
  hepatotoxicity, treatment after APAP: did not block toxicity
CAR [7]; CAR −/− animals
  serum ALT, androstanol and APAP versus APAP alone: somewhat higher
CAR [7]; androstanol at one and three hours after APAP 500 mg/kg
  ALT levels, CAR (+/+) versus CAR (−/−) animals: significantly lower ALT levels
Human CAR [8]
  activity on human CAR receptor: not human CAR
Murine CAR receptor [9]
  activity on murine CAR receptor: can be blocked

## Clc1ccccc1C(c1ccccc1)(c1ccccc1)n1ccnc1 [clotrimazole]
Human CAR [8]
  activity on human CAR receptor: inverse agonist of human

## CC(=O)N[C@@H](CS)C(=O)O [N-acetylcysteine]
CAR [6]
  protective effect, androstanol compared with N-acetylcysteine: very similar

## CC(=O)N=C1C=CC(=O)C=C1 [NAPQI, N-acetyl-p-benzoquinone imine]
[10]
  increase of serum ALT levels: 5-10 fold
Murine CAR receptor [3]
  CAR agonist function: neither APAP nor NAPQI functions as a CAR agonist
